According to patent publication US8546343B2, “Aminoglycoside antibiotics targeting bacterial 16S ribosomal RNA” (Eidgenoessische Technische Hochschule Zurich, priority 2007, dated 2013):
In brackets after ≈: the same amount, converted by molar mass.

Tests used:
AG006 E. coli BM13 = assay: Standard MIC assay, AG006; format: cell-based, Escherichia coli
Protocol: (§1) Selected compounds of the present invention were tested for antibiotic susceptibility using clinical isolates of Staphylococci, Enterococci and Escherichia coli as well as strains carrying defined resistance determinants and compared to well known antibiotics of the state of the art. Drug susceptibility was determined in standard MIC assays, i.e. by determination of the minimal drug concentration required to inhibit bacterial growth in vitro.

[1] = system: AG007 E. coli BM13 (AAC3); assay: Standard MIC assay, AG007; format: cell-based, Escherichia coli
Protocol: as §1

[2] = system: AG015 S. aureus BM3002 (ANT4′); assay: Standard MIC assay, AG015; format: cell-based, Staphylococcus aureus
Protocol: as §1

[3] = system: AG003 E. coli clinical isolate; assay: Standard MIC assay, AG003; format: cell-based, Escherichia coli; details: Escherichia coli, read-out: Minimal inhibitory concentrations AG003
Protocol: as §1

[4] = system: AG009 E. coli BM13 AAC(6′)-1B; assay: Standard MIC assay, AG009; format: cell-based, Escherichia coli
Protocol: as §1

[5] = system: AG002 E. coli clinical isolate; assay: Standard MIC assay, AG002; format: cell-based, Escherichia coli; details: Escherichia coli, read-out: Minimal inhibitory concentrations AG002
Protocol: as §1

[6] = system: AG013 Staph. epi. clinical isolate; assay: Standard MIC assay, AG013; format: cell-based, Staphylococcus epidermidis
Protocol: as §1

[7] = system: AG001 E. coli clinical isolate; assay: Standard MIC assay, AG001; format: cell-based, Escherichia coli
Protocol: as §1

AG017 E. faecalis JH2-2 = assay: Standard MIC assay, AG017; format: cell-based, Enterococcus faecalis
Protocol: as §1

[8] = system: AG004 E. coli clinical isolate; assay: Standard MIC assay, AG004; format: cell-based, Escherichia coli
Protocol: as §1

[9] = system: AG019 E. faecalis JH2-2 (APH2″ AAC6′); assay: Standard MIC assay, AG019; format: cell-based, Enterococcus faecalis
Protocol: as §1

[10] = system: AG011 Staph. aureus clinical isolate; assay: Standard MIC assay, AG011; format: cell-based, Staphylococcus aureus
Protocol: as §1

[11] = system: AG014 Staph. epi. clinical isolate; assay: Standard MIC assay, AG014; format: cell-based, Staphylococcus epidermidis
Protocol: as §1

AG016 S. aureus BM3002 = assay: Standard MIC assay, AG016; format: cell-based, Staphylococcus aureus
Protocol: as §1

[12] = system: M. smegmatis ΔrrnB 1408G (16S rRNA position 1408 G, eukaryotic cytosolic ribosomes); assay: MIC, recombinant M. smegmatis with mutant ribosomes 1408G; format: cell-based, Mycobacterium smegmatis; details: M. smegmatis ΔrrnB 1408G mutant ribosomes; 72 h at 37° C.
From the text: (§2) The strain used for introduction/selection of mutational alterations was a genetically modified derivative of Mycobacterium smegmatis carrying a single functional chromosomal rRNA operon (Sander et al. Mol. Microbiol. 1996, 22: 841-848). This strain, termed M. smegmatis rrn^−, allowed for the selection of mutational rRNA gene alterations using a plasmid carrying the rRNA gene with the respective mutational alteration.)
(§3) The rRNA gene carried on the plasmid encodes either the complete rRNA operon (Prammananan et al. Antimicrob. Agents Chemother. 1999, 43: 447-453) or a non-functional rRNA gene fragment of approximately 1.0 kb (Pfister et al. Antimicrob. Agents Chemother. 2003, 47: 1496-1502). PCR-mutagenesis in vitro was used to generate the mutagenized rRNA gene fragment. In the case of a partial rRNA gene fragment the mutagenized rRNA gene fragment was cloned into vectors pMV261 or pMV361 (Sander et al. Mol. Microbiol. 2002, 46: 1295-1304; Pfister et al. Antimicrob. Agents Chemother. 2003, 47: 1496-1502) to result in vectors carrying a partial rRNA gene fragment of approximately 1.0 kb with the mutational alteration introduced. In the case of plasmids carrying the complete rRNA operon the mutagenized rRNA gene fragment obtained by PCR was cloned into vectors pMV361 rRNA or pMV261 rRNA using appropriate restriction sites (Prammananan et al. Antimicrob. Agents Chemother. 1999, 43: 447-453). Vectors pMV361 rRNA and pMV261 rRNA carried a complete copy of the rRNA operon from M. smegmatis (Sander et al. Mol. Microbiol. 1997, 26: 469-480). Introduction of mutations into the plasmid encoded rRNA was confirmed by sequencing.
(§4) The single rRNA allelic derivative of M. smegmatis, i.e. M. smegmatis rrn, was used for transformation of the plasmids. The strain was made electro-competent and transformed according to standard techniques and as described previously (Sander et al. Mol. Microbiol. 1997, 26: 469-484). Following primary selection, the plasmid-encoded mutational rRNA gene alteration was transferred into the single chromosomal rRNA operon by means of RecA-mediated homologous recombination (Prammananan at al. Antimicrob. Agents Chemother. 1999, 43: 447-453). Introduction of the mutational rRNA gene alteration into the single functional chromosomal rRNA operon by gene conversion was confirmed by sequence determination.
(§5) Ribosomal drug susceptibility was studied by determining the minimal inhibitory concentrations, as described in detail in Pfister et al. 2003 and 2005 (see above).
(§6) The recombinants carrying the respective mutational alterations in the functional rRNA operon were colony-purified and subjected to determinations of minimal inhibitory concentrations (MIC) to determine ribosomal drug susceptibility. Cultures from single colonies were grown in LB medium supplemented with 0.05% Tween 80 and used for MIC tests in a microtiter plate format. Starting cultures contained 200 μl of bacterial cells at an optical density of 0.025 at 600 nm, and the respective drug was added in twofold series of dilution.
(§7) Key nucleotides which distinguish the prokaryotic from the eukaryotic decoding site are 16S rRNA positions 1408 (bacterial ribosome: A, eukaryotic cytosolic ribosomes: G) and 1491 (bacterial ribosomes: G, eukaryotic cytosolic ribosomes: A, eukaryotic mitochondrial ribosome: C).

[13] = system: M. smegmatis ΔrrnB 1491C (16S rRNA position 1491 C, eukaryotic mitochondrial ribosome); assay: MIC, recombinant M. smegmatis with mutant ribosomes 1491C; format: cell-based, Mycobacterium smegmatis; details: M. smegmatis ΔrrnB 1491C mutant ribosomes; 72 h at 37° C.
From the text: as §2, §3, §4, §5, §6, §7

[14] = system: M. smegmatis ΔrrnB (bacterial ribosomes); assay: MIC, recombinant M. smegmatis with bacterial (wild-type) ribosomes; format: cell-based, Mycobacterium smegmatis; details: 72 h at 37° C.
From the text: as §2, §3, §4, §5, §6, §7

[15] = system: M. smegmatis ΔrrnB 1491A (16S rRNA position 1491 A, eukaryotic cytosolic ribosomes); assay: MIC, recombinant M. smegmatis with mutant ribosomes 1491A; format: cell-based, Mycobacterium smegmatis; details: M. smegmatis ΔrrnB 1491A mutant ribosomes; 72 h at 37° C.
From the text: as §2, §3, §4, §5, §6, §7

[16] = system: AG008 E. coli BM13 (ANT2″); assay: Standard MIC assay, AG008; format: cell-based, Escherichia coli; details: E. coli BM13 (ANT2″)
Protocol: as §1

`NC[C@H]1O[C@H](O[C@H]2[C@H](O)[C@@H](O[C@H]3O[C@H](CO)[C@@H](O)[C@H](N)[C@H]3O)[C@H](N)C[C@@H]2N)[C@H](N)C[C@@H]1O` [Tobramycin, reference compound] was tested, and the MIC (AG006 E. coli BM13; Escherichia coli, read-out: Minimal inhibitory concentrations AG006) was 2 µg/mL (≈ 4.28 µM), the MIC ([1]; Escherichia coli, read-out: Minimal inhibitory concentrations AG007) was 8 µg/mL (≈ 17.1 µM) and the MIC ([2]; Staphylococcus aureus, read-out: Minimal inhibitory concentrations AG015) was ≥ 256 µg/mL. The MIC [3] was 32 µg/mL (≈ 68.4 µM), the MIC ([4]; Escherichia coli, read-out: Minimal inhibitory concentrations AG009) was 128 to 256 µg/mL (≈ 274 to 548 µM) and the MIC [5] was 4 µg/mL (≈ 8.56 µM). The MIC ([6]; Staphylococcus epidermidis, read-out: Minimal inhibitory concentrations AG013) was ≥ 256 µg/mL, the MIC ([7]; Escherichia coli, read-out: Minimal inhibitory concentrations AG001) was 4 µg/mL (≈ 8.56 µM) and the MIC (AG017 E. faecalis JH2-2; Enterococcus faecalis, read-out: Minimal inhibitory concentrations AG017) was 16 to 32 µg/mL (≈ 34.2 to 68.4 µM). For the same compound, the MIC ([8]; Escherichia coli, read-out: Minimal inhibitory concentrations AG004) was 64 µg/mL (≈ 137 µM), the MIC ([9]; Enterococcus faecalis, read-out: Minimal inhibitory concentrations AG019) was > 256 µg/mL and the MIC ([10]; Staphylococcus aureus, read-out: Minimal inhibitory concentrations AG011) was 8 µg/mL (≈ 17.1 µM). The MIC ([11]; Staphylococcus epidermidis, read-out: Minimal inhibitory concentrations AG014) was 256 µg/mL (≈ 548 µM) and the MIC (AG016 S. aureus BM3002; Staphylococcus aureus, read-out: Minimal inhibitory concentrations AG016) was 0.5 to 1 µg/mL (≈ 1.07 to 2.14 µM).

`NC[C@@H]1O[C@H](O[C@H]2[C@@H](O)[C@H](O[C@@H]3[C@@H](O)[C@H](N)C[C@H](N)[C@H]3O[C@H]3O[C@@H]4CO[C@@H](c5ccc6ccccc6c5)O[C@H]4[C@H](O)[C@H]3N)O[C@@H]2CO)[C@H](N)[C@@H](O)[C@@H]1O` [Compound 5.20, 4′,6′-O-2-Naphthylideneparomomycin] was tested, and the “minimal inhibitory concentrations ΔrrnB 1408G” value [12] was >512 µg/mL, the “Minimal inhibitory concentrations AG006” value (AG006 E. coli BM13) was 8 to 16 mg/L and the “minimal inhibitory concentrations ΔrrnB 1491C” value [13] was 512 µg/mL. For the same compound, the “Minimal inhibitory concentrations AG007” value ([1]; E. coli BM13 (AAC3)) was 16 to 32 mg/L, the “minimal inhibitory concentrations ΔrrnB” value [14] was 2 to 4 µg/mL and the “Minimal inhibitory concentrations AG015” value ([2]; S. aureus BM3002 (ANT4′)) was 8 to 16 mg/L. For the same compound, the “minimal inhibitory concentrations ΔrrnB 1491A” value [15] was 512 µg/mL, the “Minimal inhibitory concentrations AG009” value ([4]; E. coli BM13 AAC(6′)-1B) was 16 to 32 mg/L and the “Minimal inhibitory concentrations AG008” value [16] was 16 mg/L (≈ 21.2 µM). For the same compound, the “Minimal inhibitory concentrations AG013” value [6] was 1 mg/L (≈ 1.33 µM), the “Minimal inhibitory concentrations AG001” value [7] was 8 mg/L (≈ 10.6 µM) and the “Minimal inhibitory concentrations AG017” value (AG017 E. faecalis JH2-2) was 8 to 16 mg/L. For the same compound, the “Minimal inhibitory concentrations AG004” value [8] was 8 mg/L (≈ 10.6 µM), the “Minimal inhibitory concentrations AG019” value ([9]; E. faecalis JH2-2 (APH2″ AAC6′)) was 8 to 16 mg/L and the “Minimal inhibitory concentrations AG011” value [10] was 1 to 2 mg/L. For the same compound, the “Minimal inhibitory concentrations AG014” value [11] was 1 mg/L (≈ 1.33 µM) and the “Minimal inhibitory concentrations AG016” value (AG016 S. aureus BM3002) was 4 mg/L (≈ 5.31 µM).

In the case of `NC[C@@H]1O[C@H](O[C@H]2[C@@H](O)[C@H](O[C@@H]3[C@@H](O)[C@H](N)C[C@H](N)[C@H]3O[C@H]3O[C@H](CO)[C@@H](OCOCc4ccccc4)[C@H](O)[C@H]3N)O[C@@H]2CO)[C@H](N)[C@@H](O)[C@@H]1O` [Compound 19d, 4′-Benzyloxymethylparomomycin], the “minimal inhibitory concentrations ΔrrnB 1408G” value [12] is reported as >512 µg/mL, the “minimal inhibitory concentrations ΔrrnB 1491C” value [13] is reported as >512 µg/mL and the “minimal inhibitory concentrations ΔrrnB” value [14] is reported as 16 µg/mL. The “minimal inhibitory concentrations ΔrrnB 1491A” value [15] was >512 µg/mL.
